Test results from EP1528931B1, “DIPEPTIDYL PEPTIDASE IV INHIBITORS FOR DECREASING THE RATE OF CHRONIC WEIGHT GAIN” (Prosidion Ltd., priority 2002, dated 2004).
Values joined by “and” are separate entries in the source; they are usually repeats but may differ in a detail not shown here. Equal values may be shown once. Ends that are not written are not given here.

Assays:
porcine DP IV = target: T1, porcine DP IV (Sus scrofa, UniProt P22411); assay: Kinetic constants of peptide degradation by DP IV, capillary zone electrophoresis (CZE); type: biochemical; conditions: 37°C, phosphate buffer pH7.4, read-out: Cleavage, porcine DP IV, Km
T1 construct: from tissue; host or cells: porcine kidney
Protocol: The DP IV used in this study was purified from porcine kidney. The specific activity measured using Gly-Pro-4-nitroanilide as a chromogenic substrate was at least 5 units/mg. […] Capillary zone electrophoresis (CZE) investigations were carried out using a system from Beckman. Peptides and enzymes were incubated in the capillary electrophoresis system at 37°C using a 20 mM phosphate buffer pH7.4. Decrease of substrate was determined by subsequent measurements of the same sample. Separation was carried out using a 0.1 M phosphate buffer pH 2.5, a 50 µm * 30 cm fused silica capillary and 16 kV constant voltage. Peptides were detected at 200 nm. Substrate concentrations were calculated from the height of the peptide peaks, For determination of kinetic constants the degradation velocity from at least 4 substrate concentrations were determined and fitted according the Michaelis-Menten equation using Graphit 4.0.

[1] = target: human plasma containing DP IV-activity (Homo sapiens, UniProt P27487); assay: Proteolytic processing of peptides in human plasma with or without P32/98, MALDI-TOF; conditions: human EDTA-plasma with 9.8 µMol/l isoleucyl thiazolidine hemifumarate
Protocol: Matrix-assisted laser desorption/ionisation mass spectrometry was carried out using the Hewlett-Packard G2025 LD-TOF System with a linear tune of flight analyzer. […] The spectrometer was calibrated externally. […] Samples of the reaction mixtures were removed at various time intervals and mixed with equal volumes of the matrix solution. By mixing assay sample and matrix, the low pH of the matrix solution stopped the enzymatic reaction. A small volume (< 1 µl) of this mixture was transferred to a probe tip and immediately evaporated in a Hewlett-Packard G2024A Sample Prep Accessory to ensure rapid and homogenous sample crystallization. All spectra were generated using automatic mode by averaging 250 single shots selected by the signal-to-noise ratio.
The DP IV used in this study was purified from porcine kidney. […] In the case of plasma, fresh prepared human EDTA-plasma from healthy subjects was used. […] Capillary zone electrophoresis (CZE) investigations were carried out using a system from Beckman. Peptides and enzymes were incubated in the capillary electrophoresis system at 37°C using a 20 mM phosphate buffer pH7.4. Decrease of substrate was determined by subsequent measurements of the same sample. Separation was carried out using a 0.1 M phosphate buffer pH 2.5, a 50 µm * 30 cm fused silica capillary and 16 kV constant voltage. Peptides were detected at 200 nm. Substrate concentrations were calculated from the height of the peptide peaks, For determination of kinetic constants the degradation velocity from at least 4 substrate concentrations were determined and fitted according the Michaelis-Menten equation using Graphit 4.0.

Male Zucker fa/fa rats [2] = assay: Repeated once-daily dosing for 21 days: morning values and day-night profile of blood glucose and plasma insulin; type: in vivo, rat
Protocol: The parameters monitored were morning blood glucose and plasma insulin levels. In a day-night profile, glycemia and insulinaemia were monitored from day 16 to day 17. An OGTT was performed finally on day 21 to monitor blood glucose and plasma insulin kinetics to assess changes in glucose tolerance. Glibenclamide (DAB 1996; R011150/33372) was donated by Berlin-Chemie (Berlin, Germany). Male Zucker (fa/fa) rats of the body Weight class of 300g were purchased from Charles River (Sulzfeld, Germany).
Housing Conditions: Animals were kept single-housed under conventional conditions with controlled temperature (22±2 °C) on a 12/12 hours light/dark cycle (light on at 06:00 a.m.). Standard pellets (ssniff®, Soest, Germany) and tap water acidified with HCl were allowed ad libitum.
Catheterization of Carotid Artery: After one week of adaptation carotid catheters were implanted in the rats under general anesthesia (injection of 0.25 ml/kg i.p. Rompun® [2%], Bayer, Germany) and 0.5 ml/kg i.p. Velonarkon® (Arzneimittelwerk Dresden, Germany). The animals were allowed to recover for one week. The catheter was flushed with heparin-saline (104 IU/ml) three times per week.
Thereafter, the non-diabetic Wistar rats were treated orally once daily with RP (5 mg/kg b.w.) or TP (21.51 mg/kg b.w.) and the diabetic Zucker rats were treated orally once daily with RP (1 mg/kg b.w.) or TP (21.61 mg/kg b.w.) for 21 days at 05.00 p.m. (before regular food intake in the dark phase). The controls were given 1% cellulose solution orally (5 ml/kg). Blood samples were taken every morning at 07.30 a.m. from tail veins for measurement of blood glucose and plasma insulin. The last blood samples of this part of the program were taken at 07.30 a.m. on the 15th day to measure blood glucose and plasma insulin. The oral drug therapy was continued for one week. Recording the day-night profile under the above therapy blood glucose (Δt ≡ 3 h) and plasma insulin (Δt = 3-6 h) wore monitored from day 16 (at b5.40 p.m. beginning) to day 17 (at 02.00 p.m. end).
(§1) Blood glucose: Glucose levels were measured using the glucose oxidase procedure (Super G Glukosemeßgerät; Dr. Müller Gerätebau, Freital, Germany).
(§2) Plasma insulin: Insulin concentrations were assayed by the antibody RIA method (LINCO Research, Inc. St Charles, Mo., USA).

Male Zucker fa/fa rats [3] = assay: OGTT on day 21 of repeated dosing; type: in vivo, rat
Protocol: OGTT: A final OGTT was performed on day 21 with blood sampling from the tail vein. Blood samples from the tail vein were taken at-12 h (the night before day 21), at 0 min (immediately before the beginning of OGTT), at 10, 20, 30, 40, 50, 60, 80, 100 and 120 min. Blood samples were taken in 20 µl glass capillaries for blood glucose measurements and in Eppendorf tubes (100 µl). The latter were immediately centrifuged and the plasma fractions were stored at-20°C for insulin analysis.
as §1, §2

[4] = test system: human plasma containing DP IV-activity; assay: Proteolytic processing of peptides in human plasma with or without P32/98, MALDI-TOF; type: in vitro ADME; conditions: inhibitor 9.8 µMol/l
Source text: The instrument was equipped with a 337 nm nitrogen laser, a potential acceleration source (5 kV) and a 1.0 m flight tube. […] The spectrometer was calibrated externally.
Peptides were detected at 200 nm.

T1 sequence (P22411 whole entry): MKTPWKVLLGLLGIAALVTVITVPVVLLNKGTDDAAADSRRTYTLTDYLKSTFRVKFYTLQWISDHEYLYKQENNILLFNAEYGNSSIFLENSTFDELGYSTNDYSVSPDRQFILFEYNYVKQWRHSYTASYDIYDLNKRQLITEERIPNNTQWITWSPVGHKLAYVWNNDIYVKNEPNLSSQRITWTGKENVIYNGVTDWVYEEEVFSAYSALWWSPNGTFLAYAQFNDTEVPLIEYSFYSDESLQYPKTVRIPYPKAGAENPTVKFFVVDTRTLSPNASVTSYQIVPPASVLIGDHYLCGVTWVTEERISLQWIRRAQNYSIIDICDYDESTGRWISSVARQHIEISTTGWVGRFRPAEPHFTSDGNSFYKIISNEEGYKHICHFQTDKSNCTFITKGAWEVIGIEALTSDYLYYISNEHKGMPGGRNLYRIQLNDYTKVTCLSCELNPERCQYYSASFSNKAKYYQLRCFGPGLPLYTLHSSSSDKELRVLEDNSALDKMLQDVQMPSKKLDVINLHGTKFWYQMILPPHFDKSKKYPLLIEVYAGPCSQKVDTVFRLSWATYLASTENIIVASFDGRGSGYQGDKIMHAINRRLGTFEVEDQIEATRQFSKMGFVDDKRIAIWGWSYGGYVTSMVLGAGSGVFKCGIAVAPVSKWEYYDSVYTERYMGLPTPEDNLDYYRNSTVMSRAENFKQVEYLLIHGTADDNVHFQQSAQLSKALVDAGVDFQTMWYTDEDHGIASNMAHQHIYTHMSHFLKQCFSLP
Sequence of human plasma containing DP IV-activity (Homo sapiens, UniProt P27487) (P27487 39-766 limits assumed): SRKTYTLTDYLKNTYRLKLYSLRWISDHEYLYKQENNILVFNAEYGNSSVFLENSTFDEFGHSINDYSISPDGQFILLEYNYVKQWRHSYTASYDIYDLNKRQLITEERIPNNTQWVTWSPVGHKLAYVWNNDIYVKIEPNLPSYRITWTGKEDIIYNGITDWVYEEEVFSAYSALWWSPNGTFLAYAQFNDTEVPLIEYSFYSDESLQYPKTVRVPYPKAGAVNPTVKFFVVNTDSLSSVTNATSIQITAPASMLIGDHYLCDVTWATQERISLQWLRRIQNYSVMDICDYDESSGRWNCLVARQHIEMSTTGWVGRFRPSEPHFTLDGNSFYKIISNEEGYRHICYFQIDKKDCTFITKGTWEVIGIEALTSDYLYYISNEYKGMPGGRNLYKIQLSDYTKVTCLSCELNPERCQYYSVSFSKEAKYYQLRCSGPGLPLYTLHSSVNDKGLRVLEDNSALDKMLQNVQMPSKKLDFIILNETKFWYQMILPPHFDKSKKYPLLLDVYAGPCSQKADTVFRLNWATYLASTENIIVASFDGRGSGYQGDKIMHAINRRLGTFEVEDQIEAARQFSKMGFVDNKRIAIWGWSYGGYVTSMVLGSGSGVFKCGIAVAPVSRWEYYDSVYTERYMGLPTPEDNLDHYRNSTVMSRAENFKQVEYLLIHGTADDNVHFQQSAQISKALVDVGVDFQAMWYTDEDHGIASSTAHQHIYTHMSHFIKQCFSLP

## Somatostatin 14
Porcine DP IV
  Km: 42 µM

## Secretin
[1]
  Cleavage, human plasma +P32/98: ø

## Somatostatin 28
Porcine DP IV
  Km: 6 µM

## Peptide histidin methionine [Peptide histidin methionine (PHM)]
[1]
  Cleavage, human plasma +P32/98: ø
Porcine DP IV
  Km: 35 µM

## COc1ccc(Cl)cc1C(=O)NCCc1ccc(S(=O)(=O)NC(=O)NC2CCCCC2)cc1 [glibenclamide]
Male Zucker fa/fa rats [2]; Zucker rats, 02.00 p.m. next day
  Day-night profile: mean blood glucose: 7.34 ± 0.77 mmol/L
Male Zucker fa/fa rats [2]; Zucker rats, 02.00 p.m. the next day
  Day-night profile: plasma insulin: 58.3 ± 7.3 ng/mL
Male Zucker fa/fa rats [2]; Zucker rats, day 16, 05.00 p.m.
  Day-night profile: plasma insulin: 50.0 ± 8.2 ng/mL
Male Zucker fa/fa rats [2]; Zucker rats, day 16, 05.00 p.m., RP 1 mg/kg or TP 21.61 mg/kg orally once daily
  Day-night profile: mean blood glucose: 7.96 ± 1.13 mmol/L
Male Zucker fa/fa rats [2]; Zucker rats, day 16, 08.00 p.m.
  Day-night profile: plasma insulin: 57.3 ± 8.2 ng/mL
Male Zucker fa/fa rats [2]; Zucker rats, day 16, 11.00 p.m.
  Day-night profile: mean blood glucose: 14.80 ± 1.46 mmol/L
Male Zucker fa/fa rats [2]; Zucker rats, day 17, 05.00 a.m.
  Day-night profile: plasma insulin: 76.3 ± 8.6 ng/mL
Male Zucker fa/fa rats [2]; Zucker rats, day 17, 11.00 a.m.
  Day-night profile: mean blood glucose: 7.66 ± 1.22 mmol/L
Male Zucker fa/fa rats [2]; Zucker rats, within two days of therapy
  Increase of morning blood glucose: about 1.5 mmol/l
Male Zucker fa/fa rats [2]; obese Zucker rat, subchronic treatment, total daily insulin secretion
  Increase of insulin output: 27%
Male Zucker fa/fa rats [3]; 05.00 p.m., night before day 21
  Glycemia at last drug application before overnight fasting: 8.81 ± 1.21 mmol/L
Male Zucker fa/fa rats [3]; OGTT day 21
  Blood glucose increase after the glucose load: about 11 mmol/l
  glucose area under the curve (G-AUC0-120 min): 1096 ± 76 mmol·min/L
Male Zucker fa/fa rats [3]; day 21, 07.30 a.m.
  Glycemia after overnight fasting (basal, before OGTT): 4.91 ± 0.37 mmol/L
Male Zucker fa/fa rats [3]; day 21, 50 min
  OGTT blood glucose: 16.33 ± 0.98 mmol/L
Male Zucker fa/fa rats [3]; day 21, 80 min
  OGTT blood glucose: 16.24 ± 1.09 mmol/L
Male Zucker fa/fa rats [3]; day 21, 100 min
  OGTT blood glucose: 15.13 ± 0.76 mmol/L
Male Zucker fa/fa rats [3]; day 21, 120 min
  OGTT blood glucose: 14.81 ± 0.66 mmol/L
Male Zucker fa/fa rats [3]; day 21, overnight fasting, listed as RP
  Fasting plasma insulin at the beginning of the OGTT: 11.8±1.5 ng/ml and ~ 12.5 ng/ml

## Di-[2S,3S]-2-Amino-3-methyl-pentanoic-1,3-thiazolidine fumarate [P32/98]
[4]
  Hydrolysis of gastrointestinal peptides in human plasma: blocked

## Pituitary adenylate cyclase activating polypeptide 27
[1]
  Cleavage, human plasma +P32/98: ø

## Gastrin releasing peptide (VPLPAGGGTVLTKMYPRGNHWAVGHLM; ends and bridges not checked; UniProt P07492 24-50, looked up) [Gastrin releasing peptide (GRP)]
[1]
  Cleavage, human plasma +P32/98: ø

## Cholecystokinin [Cholecystokinin (CCK21)]
[1]
  Cleavage, human plasma +P32/98: slow unspecific degradation by aminopeptidases and ø
